Experimental data: ChEMBL document CHEMBL4507276 (2021)

Legend:
[1] = biological target: Sigma non-opioid intracellular receptor 1 (Homo sapiens) (UniProt Q99720); settings: Compound concentration 10.0 uM
[2] = biological target: GABA-A receptor; anion channel (Rattus norvegicus) (UniProt O09028+P15431+P18506+P18508+P19969+P20236+P23574+P23576+P28471+P28473+P30191+P62813+P63079+P63138+Q91ZM7+Q9ES14); settings: Compound concentration 10.0 uM
[3] = biological target: Endothelin-1 receptor (Homo sapiens) (UniProt P25101); test: ETA/H Cerep selectivity data (BI); settings: Compound concentration 20.0 uM
[4] = biological target: ATP-sensitive inward rectifier potassium channel 1 isoform X1 (Mesocricetus auratus) (UniProt A0A1U8CU73); test: K+/KATP/HA Eurofins-Panlabs selectivity data (BI); settings: Compound concentration 10.0 uM
[5] = biological target: Mitogen-activated protein kinase kinase kinase kinase 4 (Homo sapiens) (UniProt O95819); test: MAP4K4 Invitrogen selectivity data (BI); settings: Compound concentration 3.0 uM
[6] = biological target: Homeodomain-interacting protein kinase 3 (Homo sapiens) (UniProt Q9H422); test: HIPK3 Invitrogen selectivity data (BI); settings: Compound concentration 3.0 uM
[7] = biological target: MAP/microtubule affinity-regulating kinase 3 (Homo sapiens) (UniProt P27448); test: MARK3 Invitrogen selectivity data (BI); settings: Compound concentration 3.0 uM
[8] = biological target: Serine/threonine-protein kinase B-raf (Homo sapiens) (UniProt P15056); test: BRAF Invitrogen selectivity data (BI); settings: Compound concentration 3.0 uM
[9] = biological target: G protein-coupled receptor kinase 4 (Homo sapiens) (UniProt P32298); test: GRK4 Invitrogen selectivity data (BI); settings: Compound concentration 3.0 uM
[10] = biological target: Mitogen-activated protein kinase kinase kinase kinase 5 (Homo sapiens) (UniProt Q9Y4K4); test: MAP4K5 Invitrogen selectivity data (BI); settings: Compound concentration 3.0 uM
[11] = biological target: T1, Serine/threonine-protein kinase TAO2 (Homo sapiens) (UniProt Q9UL54); test: TAOK2 Invitrogen selectivity data (BI); settings: Compound concentration 3.0 uM
T1 sequence (whole entry): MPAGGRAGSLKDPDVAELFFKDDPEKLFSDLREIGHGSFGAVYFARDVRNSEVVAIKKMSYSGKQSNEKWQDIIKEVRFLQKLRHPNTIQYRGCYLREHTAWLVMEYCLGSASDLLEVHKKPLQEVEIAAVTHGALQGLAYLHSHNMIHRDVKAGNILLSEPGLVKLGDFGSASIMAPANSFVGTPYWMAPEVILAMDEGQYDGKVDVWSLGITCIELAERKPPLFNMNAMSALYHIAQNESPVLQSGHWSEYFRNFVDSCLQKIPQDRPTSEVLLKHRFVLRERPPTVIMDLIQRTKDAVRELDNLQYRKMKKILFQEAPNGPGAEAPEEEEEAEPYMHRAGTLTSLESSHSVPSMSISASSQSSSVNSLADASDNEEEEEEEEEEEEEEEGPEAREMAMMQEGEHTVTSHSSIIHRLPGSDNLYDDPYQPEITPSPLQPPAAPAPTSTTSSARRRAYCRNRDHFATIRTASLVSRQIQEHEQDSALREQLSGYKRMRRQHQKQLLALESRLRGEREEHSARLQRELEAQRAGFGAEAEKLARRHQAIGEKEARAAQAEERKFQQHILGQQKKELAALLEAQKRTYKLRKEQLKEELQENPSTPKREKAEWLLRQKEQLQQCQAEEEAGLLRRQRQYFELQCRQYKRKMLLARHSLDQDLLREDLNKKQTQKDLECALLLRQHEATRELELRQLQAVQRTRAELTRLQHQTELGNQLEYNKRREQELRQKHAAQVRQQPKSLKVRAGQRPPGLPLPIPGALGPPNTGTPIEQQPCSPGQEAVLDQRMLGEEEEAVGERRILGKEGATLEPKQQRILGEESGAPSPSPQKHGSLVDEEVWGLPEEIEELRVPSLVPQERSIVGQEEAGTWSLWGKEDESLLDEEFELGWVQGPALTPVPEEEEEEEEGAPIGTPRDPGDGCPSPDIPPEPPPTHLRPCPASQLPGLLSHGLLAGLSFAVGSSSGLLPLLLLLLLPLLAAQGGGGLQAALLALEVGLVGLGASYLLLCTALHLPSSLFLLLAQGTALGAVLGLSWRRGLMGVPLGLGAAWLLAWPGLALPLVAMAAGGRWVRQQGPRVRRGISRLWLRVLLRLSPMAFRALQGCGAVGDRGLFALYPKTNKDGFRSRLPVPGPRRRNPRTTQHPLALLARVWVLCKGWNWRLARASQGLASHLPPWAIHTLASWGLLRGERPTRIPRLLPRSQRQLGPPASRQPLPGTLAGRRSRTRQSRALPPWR

[12] = biological target: D(1A) dopamine receptor (Homo sapiens) (UniProt P21728); test: D1/HU Eurofins-Panlabs selectivity data (BI); settings: Compound concentration 10.0 uM
[13] = biological target: Glutamate receptor ionotropic, AMPA (Rattus norvegicus) (UniProt P19491+P19492+P19493+P19490); test: AMPA/R Cerep selectivity data (BI); assay type: protein-complex assay; settings: Compound concentration 20.0 uM
[14] = biological target: Protein-tyrosine kinase 6 (Homo sapiens) (UniProt Q13882); test: PTK6 Invitrogen selectivity data (BI); settings: Compound concentration 3.0 uM
[15] = biological target: Ribosomal protein S6 kinase alpha-4 (Homo sapiens) (UniProt O75676); test: RPS6KA4 Invitrogen selectivity data (BI); settings: Compound concentration 3.0 uM
[16] = biological target: Prostacyclin receptor (Homo sapiens) (UniProt P43119); test: PGI2/H Cerep selectivity data (BI); settings: Compound concentration 20.0 uM
[17] = biological target: Estrogen receptor (Homo sapiens) (UniProt P03372); test: ER_ALPHA_AGON Cerep selectivity data (BI); settings: filed as agonist, Compound concentration 20.0 uM
[18] = biological target: Beta-secretase 1 (Homo sapiens) (UniProt P56817); test: BACE-1 Cerep selectivity data (BI); settings: Compound concentration 20.0 uM
[19] = biological target: D(2) dopamine receptor (Homo sapiens) (UniProt P14416); test: D2SH_AGON Cerep selectivity data (BI); settings: filed as agonist, Compound concentration 20.0 uM
[20] = biological target: Tyrosine-protein kinase receptor UFO (Homo sapiens) (UniProt P30530); test: AXL Invitrogen selectivity data (BI); settings: Compound concentration 3.0 uM
Caspase-3 (Homo sapiens) = Caspase-3 (Homo sapiens) (UniProt P42574); test: CASPASE-3 Cerep selectivity data (BI); settings: Compound concentration 20.0 uM
[21] = biological target: Cyclin-dependent kinase 7 (Homo sapiens) (UniProt P50613); test: CDK7CYCLIN Invitrogen selectivity data (BI); settings: Compound concentration 3.0 uM
[22] = biological target: RAF proto-oncogene serine/threonine-protein kinase (Homo sapiens) (UniProt P04049); test: RAF1 Invitrogen selectivity data (BI); settings: Compound concentration 3.0 uM
[23] = biological target: Gamma-aminobutyric acid receptor subunit alpha-1 (Rattus norvegicus) (UniProt P62813); test: GABAA MUSCIMOL CENT Eurofins-Panlabs selectivity data (BI); settings: Compound concentration 10.0 uM
[24] = biological target: Myosin light chain kinase 2, skeletal/cardiac muscle (Homo sapiens) (UniProt Q9H1R3); test: MYLK2 Invitrogen selectivity data (BI); settings: Compound concentration 3.0 uM
[25] = biological target: Glutamate NMDA receptor (Rattus norvegicus) (UniProt P35439+Q00959+Q00960+Q00961+Q62645+Q8VHN2+Q9R1M7); test: PCP/R Cerep selectivity data (BI); assay type: protein-complex assay; settings: Compound concentration 20.0 uM
[26] = biological target: Alpha-2C adrenergic receptor (Homo sapiens) (UniProt P18825); test: ALPHA2CH_ANTAG Cerep selectivity data (BI); settings: filed as antagonist, Compound concentration 20.0 uM

Mitogen-activated protein kinase kinase kinase kinase 5 (Homo sapiens), sequence (Q9Y4K4 whole entry, looked up): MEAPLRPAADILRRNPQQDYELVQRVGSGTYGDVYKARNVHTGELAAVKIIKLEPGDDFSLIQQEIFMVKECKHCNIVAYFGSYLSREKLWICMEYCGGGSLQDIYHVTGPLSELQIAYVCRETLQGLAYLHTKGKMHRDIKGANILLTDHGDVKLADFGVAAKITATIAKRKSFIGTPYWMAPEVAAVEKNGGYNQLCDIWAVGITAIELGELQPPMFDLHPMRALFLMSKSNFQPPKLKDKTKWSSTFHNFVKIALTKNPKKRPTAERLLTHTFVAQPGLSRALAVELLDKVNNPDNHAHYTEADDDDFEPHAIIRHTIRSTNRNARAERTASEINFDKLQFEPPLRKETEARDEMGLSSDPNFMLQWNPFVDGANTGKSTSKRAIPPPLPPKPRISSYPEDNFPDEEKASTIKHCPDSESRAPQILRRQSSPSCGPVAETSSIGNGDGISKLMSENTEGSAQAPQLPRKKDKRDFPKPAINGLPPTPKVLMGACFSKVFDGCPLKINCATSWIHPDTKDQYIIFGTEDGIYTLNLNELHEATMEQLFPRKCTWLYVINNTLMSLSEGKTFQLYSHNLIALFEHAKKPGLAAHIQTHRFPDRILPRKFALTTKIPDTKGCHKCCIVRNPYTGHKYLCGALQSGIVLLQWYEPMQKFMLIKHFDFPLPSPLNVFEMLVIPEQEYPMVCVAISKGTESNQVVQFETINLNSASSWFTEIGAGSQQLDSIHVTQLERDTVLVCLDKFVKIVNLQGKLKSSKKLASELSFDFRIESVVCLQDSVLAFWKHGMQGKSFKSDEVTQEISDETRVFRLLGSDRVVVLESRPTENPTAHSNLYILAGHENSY
Ribosomal protein S6 kinase alpha-4 (Homo sapiens), sequence (O75676 whole entry, looked up): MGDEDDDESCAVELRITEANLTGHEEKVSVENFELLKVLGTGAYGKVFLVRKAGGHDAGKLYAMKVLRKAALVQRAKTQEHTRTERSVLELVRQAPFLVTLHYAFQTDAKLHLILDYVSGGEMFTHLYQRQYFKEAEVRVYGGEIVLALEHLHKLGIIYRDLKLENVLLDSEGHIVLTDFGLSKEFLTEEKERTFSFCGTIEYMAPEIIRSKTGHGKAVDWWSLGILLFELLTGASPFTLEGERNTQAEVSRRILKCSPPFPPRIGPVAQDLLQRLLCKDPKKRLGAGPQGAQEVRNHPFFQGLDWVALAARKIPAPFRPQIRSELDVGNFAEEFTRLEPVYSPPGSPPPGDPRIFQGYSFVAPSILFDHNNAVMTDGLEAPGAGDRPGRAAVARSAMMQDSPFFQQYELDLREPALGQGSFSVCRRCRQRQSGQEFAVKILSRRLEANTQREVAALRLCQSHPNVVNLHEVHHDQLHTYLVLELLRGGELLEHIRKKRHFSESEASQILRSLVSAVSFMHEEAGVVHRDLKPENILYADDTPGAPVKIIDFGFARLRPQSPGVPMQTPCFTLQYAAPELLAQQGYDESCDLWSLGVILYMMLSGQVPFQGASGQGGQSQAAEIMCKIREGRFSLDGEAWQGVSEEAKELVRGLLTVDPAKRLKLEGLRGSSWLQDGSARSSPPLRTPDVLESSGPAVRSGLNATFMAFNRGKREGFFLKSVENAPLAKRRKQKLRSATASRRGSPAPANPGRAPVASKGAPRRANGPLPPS
Caspase-3 (Homo sapiens), sequence (P42574 29-175 limits assumed): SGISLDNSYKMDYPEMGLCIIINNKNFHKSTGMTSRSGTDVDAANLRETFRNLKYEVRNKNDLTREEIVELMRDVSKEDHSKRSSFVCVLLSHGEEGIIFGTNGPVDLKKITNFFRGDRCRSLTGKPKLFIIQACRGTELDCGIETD
Caspase-3 (Homo sapiens), sequence (P42574 176-277 limits assumed): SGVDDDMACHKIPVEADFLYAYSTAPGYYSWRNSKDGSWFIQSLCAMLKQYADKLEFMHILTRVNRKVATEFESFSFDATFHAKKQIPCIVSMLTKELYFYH
Estrogen receptor (Homo sapiens), sequence (P03372 whole entry): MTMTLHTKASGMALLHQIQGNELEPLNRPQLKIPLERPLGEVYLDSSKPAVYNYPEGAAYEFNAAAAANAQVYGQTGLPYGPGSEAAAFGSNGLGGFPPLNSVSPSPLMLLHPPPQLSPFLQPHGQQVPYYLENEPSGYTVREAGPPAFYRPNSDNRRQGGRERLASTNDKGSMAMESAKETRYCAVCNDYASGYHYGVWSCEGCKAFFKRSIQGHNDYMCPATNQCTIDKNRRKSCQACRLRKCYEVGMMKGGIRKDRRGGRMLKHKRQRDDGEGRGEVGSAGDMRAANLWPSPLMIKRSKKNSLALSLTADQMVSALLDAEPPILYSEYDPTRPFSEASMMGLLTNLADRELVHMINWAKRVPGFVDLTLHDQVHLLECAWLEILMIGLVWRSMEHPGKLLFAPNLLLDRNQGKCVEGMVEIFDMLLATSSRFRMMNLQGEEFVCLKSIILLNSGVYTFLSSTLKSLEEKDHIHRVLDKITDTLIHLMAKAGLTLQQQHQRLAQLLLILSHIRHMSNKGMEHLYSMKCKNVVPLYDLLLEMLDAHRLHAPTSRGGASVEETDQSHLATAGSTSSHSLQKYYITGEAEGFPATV
D(2) dopamine receptor (Homo sapiens), sequence (P14416 whole entry): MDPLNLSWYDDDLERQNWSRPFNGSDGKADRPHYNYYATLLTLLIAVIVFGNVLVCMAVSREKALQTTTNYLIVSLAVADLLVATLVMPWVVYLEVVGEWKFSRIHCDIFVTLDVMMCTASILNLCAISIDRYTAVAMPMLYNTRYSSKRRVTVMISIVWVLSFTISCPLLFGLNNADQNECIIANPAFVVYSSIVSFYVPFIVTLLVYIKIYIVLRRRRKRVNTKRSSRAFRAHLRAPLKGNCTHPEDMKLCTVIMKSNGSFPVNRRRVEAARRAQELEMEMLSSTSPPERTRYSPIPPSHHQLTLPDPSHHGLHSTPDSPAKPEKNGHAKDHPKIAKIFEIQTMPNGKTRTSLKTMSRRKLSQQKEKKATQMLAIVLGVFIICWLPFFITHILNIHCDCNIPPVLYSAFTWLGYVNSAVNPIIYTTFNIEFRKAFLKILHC
D(1A) dopamine receptor (Homo sapiens), sequence (P21728 whole entry): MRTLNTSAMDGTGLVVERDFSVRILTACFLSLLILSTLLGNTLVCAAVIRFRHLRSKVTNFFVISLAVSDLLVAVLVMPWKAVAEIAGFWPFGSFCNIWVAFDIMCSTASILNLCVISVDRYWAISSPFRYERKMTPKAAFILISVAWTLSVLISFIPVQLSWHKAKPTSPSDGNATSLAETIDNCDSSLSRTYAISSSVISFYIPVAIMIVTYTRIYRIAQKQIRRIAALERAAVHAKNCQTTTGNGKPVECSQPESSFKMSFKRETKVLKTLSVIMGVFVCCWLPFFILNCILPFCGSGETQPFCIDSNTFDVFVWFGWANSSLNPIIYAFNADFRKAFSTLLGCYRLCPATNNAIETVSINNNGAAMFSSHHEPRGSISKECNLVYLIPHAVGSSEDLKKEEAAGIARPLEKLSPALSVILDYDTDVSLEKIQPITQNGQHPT
Sigma non-opioid intracellular receptor 1 (Homo sapiens), sequence (Q99720 whole entry): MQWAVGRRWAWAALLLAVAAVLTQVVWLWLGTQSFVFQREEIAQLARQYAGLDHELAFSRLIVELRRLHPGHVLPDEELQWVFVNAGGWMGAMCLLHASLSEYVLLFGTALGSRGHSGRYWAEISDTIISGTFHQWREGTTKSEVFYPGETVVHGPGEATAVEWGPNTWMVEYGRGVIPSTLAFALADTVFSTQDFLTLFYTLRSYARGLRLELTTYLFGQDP
Serine/threonine-protein kinase B-raf (Homo sapiens), sequence (P15056 whole entry): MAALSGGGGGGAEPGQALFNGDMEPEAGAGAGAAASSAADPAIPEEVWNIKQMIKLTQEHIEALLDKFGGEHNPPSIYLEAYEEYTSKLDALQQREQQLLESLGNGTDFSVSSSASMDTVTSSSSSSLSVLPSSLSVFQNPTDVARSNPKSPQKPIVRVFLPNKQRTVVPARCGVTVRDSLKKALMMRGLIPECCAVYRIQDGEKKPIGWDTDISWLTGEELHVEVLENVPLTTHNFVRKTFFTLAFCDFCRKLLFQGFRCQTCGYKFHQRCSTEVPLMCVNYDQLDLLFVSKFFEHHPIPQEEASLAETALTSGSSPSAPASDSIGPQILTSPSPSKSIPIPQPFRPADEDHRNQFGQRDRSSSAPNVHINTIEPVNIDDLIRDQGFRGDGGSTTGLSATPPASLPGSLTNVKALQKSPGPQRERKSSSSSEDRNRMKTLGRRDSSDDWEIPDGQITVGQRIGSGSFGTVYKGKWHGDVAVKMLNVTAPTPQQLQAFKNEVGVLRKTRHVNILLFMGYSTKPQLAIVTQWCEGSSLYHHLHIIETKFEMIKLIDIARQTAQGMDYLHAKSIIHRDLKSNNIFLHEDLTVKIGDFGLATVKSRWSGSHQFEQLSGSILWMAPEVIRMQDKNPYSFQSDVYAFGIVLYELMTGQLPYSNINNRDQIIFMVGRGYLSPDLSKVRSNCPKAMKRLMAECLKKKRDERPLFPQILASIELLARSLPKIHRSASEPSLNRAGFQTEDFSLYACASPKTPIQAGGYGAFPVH
Endothelin-1 receptor (Homo sapiens), sequence (P25101 whole entry, canonical isoform): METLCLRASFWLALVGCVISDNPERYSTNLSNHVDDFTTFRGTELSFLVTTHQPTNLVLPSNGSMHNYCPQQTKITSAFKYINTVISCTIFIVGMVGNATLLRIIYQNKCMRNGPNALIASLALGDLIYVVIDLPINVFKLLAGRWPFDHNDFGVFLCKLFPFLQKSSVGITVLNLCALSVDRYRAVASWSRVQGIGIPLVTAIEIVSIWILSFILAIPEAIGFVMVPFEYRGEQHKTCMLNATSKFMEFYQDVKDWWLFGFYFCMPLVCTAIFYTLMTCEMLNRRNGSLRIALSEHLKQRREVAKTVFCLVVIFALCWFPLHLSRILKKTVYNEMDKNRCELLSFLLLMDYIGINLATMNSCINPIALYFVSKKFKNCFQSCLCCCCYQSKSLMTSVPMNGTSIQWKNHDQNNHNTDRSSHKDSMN

CN(C)C(=O)Cn1cc(-c2nc(C3(c4ccc(-c5cnc(N)nc5)cc4)CC3)no2)cn1 [BI 0153]
inactive: inhibition [1] -4.19% | inhibition [2] 6.54%

CN(C)C(=O)Cn1cc(-c2nc([C@@](C)(c3ccc(-c4cnc(N)nc4)cc3)C3CC3)no2)cn1 [BI 665915]
inactive: residual activity [3] 102% | residual activity [4] 97% | residual activity [5] 96.5% | residual activity [6] 99% | residual activity [7] 98% | residual activity [8] 95% | residual activity [9] 102% | residual activity [10] 93% | residual activity [11] 100% | residual activity [12] 108% | residual activity [13] 105% | residual activity [14] 99.5% | residual activity [15] 103% | residual activity [16] 94% | residual activity [17] 96% | residual activity [18] 102% | residual activity [19] 95% | residual activity [20] 95.5% | residual activity (Caspase-3 (Homo sapiens)) 98% | residual activity [21] 100% | residual activity [22] 97% | residual activity [23] 100% | residual activity [24] 89.5% | residual activity [25] 100% | residual activity [26] 103%
